pEC50: −log10 of the molar value.
The molecules below were run against GLP-1 Receptor (Homo sapiens, UniProt P43220) (assay: GLP-1R agonist cAMP stimulation assay (HEK293/GLP1R/CRE-LUC cells, cAMP dynamic 2 kit)). Details: HEK293/CRE-Luc cell line stably expressing the GLP-1 Receptor; 30 min incubation at 37° C.; read-out: GLP1R cAMP Stimulation DR: EC50.
Format: cell-based
Method: Activation of GLP-1 receptor is known to stimulate cyclic AMP (cAMP) production in cells which indicates primary coupling to the Gas subunit of the G protein heterotrimeric complex.
To optimize functional activity directed toward Gas coupling, a HEK293/CRE-Luc cell line developed by HDB stably expressing the GLP-1 Receptor was used. […] Seal the plate and incubate at 37° C. with 5% CO2 for 30 min.
After incubation the cAMP assay signal was generated using cAMP dynamic 2 Kit (Cisbio). 5 μL cAMP-d2 working solution was added to each well, followed with 5 μL Anti-cAMP antibody-cryptate working solution added to each well using ThermoFisher Multidrop Combi. Incubate at room temperature for 1 hour protected from light.
% Activity=[…]×(mean RLU of test sample−mean RLU of vehicle control)/(mean RLU of MAX control−mean RLU of vehicle control))

Sequence of GLP-1 Receptor (P43220 24-463, species assumed): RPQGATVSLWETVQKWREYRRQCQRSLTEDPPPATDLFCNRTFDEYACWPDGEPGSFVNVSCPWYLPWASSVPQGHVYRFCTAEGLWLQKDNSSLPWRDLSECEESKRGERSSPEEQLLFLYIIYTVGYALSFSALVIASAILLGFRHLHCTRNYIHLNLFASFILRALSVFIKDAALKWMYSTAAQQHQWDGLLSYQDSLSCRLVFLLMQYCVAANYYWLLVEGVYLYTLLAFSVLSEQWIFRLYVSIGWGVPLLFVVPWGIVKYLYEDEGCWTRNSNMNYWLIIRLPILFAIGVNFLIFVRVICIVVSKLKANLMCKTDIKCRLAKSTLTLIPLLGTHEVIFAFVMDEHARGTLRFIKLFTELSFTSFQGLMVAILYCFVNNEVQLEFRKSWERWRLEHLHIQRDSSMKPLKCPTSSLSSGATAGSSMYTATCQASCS

`O=C(O)c1ccc2nc(CN3CCC(Oc4cccc(Cc5cccc(Cl)c5)n4)CC3)n(C[C@@H]3CCO3)c2n1` [Compound 125a, (S)-2-((4-((6-(3-chlorobenzyl)pyridin-2-yl)oxy)piperidin-1-yl)methyl)-3-(oxetan-2-ylmethyl)-3H-imidazo[4,5-b]pyridine-5-carboxylic acid] and `O=C(O)c1ccc2nc(CN3CCC(Oc4cccc(Cc5ccccc5Cl)n4)CC3)n(C[C@@H]3CCO3)c2n1` [Compound 126a, (S)-2-((4-((6-(2-chlorobenzyl)pyridin-2-yl)oxy)piperidin-1-yl)methyl)-3-(oxetan-2-ylmethyl)-3H-imidazo[4,5-b]pyridine-5-carboxylic acid] are within 0.2 log units of each other in pEC50: 8.85 for the first, 9.00 for the second.

First: O=C(O)c1ccc2nc(CN3CCC(Oc4cc(Cl)cc(Cc5ccc(Cl)cc5)n4)CC3)n(C[C@@H]3CCO3)c2n1 [Compound 155a, 2-{[4-({4-chloro-6-[(4-chlorophenyl)methyl]pyridin-2-yl}oxy)piperidin-1-yl]methyl}-3-{[(2S)-oxetan-2-yl]methyl}-3H-imidazo[4,5-b]pyridine-5-carboxylic acid]
Second: O=C(O)c1ccc2nc(CN3CCC(Oc4nc(Cc5ccc(Cl)cc5F)ccc4Cl)CC3)n(C[C@@H]3CCO3)c2n1 [Compound 137a, 2-{[4-({3-chloro-6-[(4-chloro-2-fluorophenyl)methyl]pyridin-2-yl}oxy)piperidin-1-yl]methyl}-3-{[(2S)-oxetan-2-yl]methyl}-3H-imidazo[4,5-b]pyridine-5-carboxylic acid]
The pEC50 of the first is 1.13 log units higher: 8.42 for the first, 7.29 for the second.

First: O=C(O)c1ccc2nc(C[C@H]3CC[C@H](Oc4nc(Cc5ccc(Cl)cc5)ncc4F)CC3)n(C[C@@H]3CCO3)c2n1 [Compound 188a, 3-{[(2S)-oxetan-2-yl]methyl}-2-{[trans-4-({2-[(4-chlorophenyl)methyl]-5-fluoropyrimidin-4-yl}oxy)cyclohexyl]methyl}-3H-imidazo[4,5-b]pyridine-5-carboxylic acid]
Second: O=C(O)c1ccc2nc(C[C@H]3CC[C@@H](Oc4cccc(Cc5ccc(Cl)cc5F)n4)CC3)n(C[C@@H]3CCO3)c2n1 [Compound 174a, 3-{[(2S)-oxetan-2-yl]methyl}-2-{[cis-4-({6-[(4-chloro-2-fluorophenyl)methyl]pyridin-2-yl}oxy)cyclohexyl]methyl}-3H-imidazo[4,5-b]pyridine-5-carboxylic acid]
The pEC50 of the first is 2.81 log units higher: 10.35 for the first, 7.54 for the second.

Compared with `O=C(O)c1ccc2nc(CN3CCC(Oc4nc(Cc5ccc(Cl)cc5)ncc4F)CC3)n(C[C@H]3CCOC3)c2n1` [Compound 197a, (R)-2-((4-((2-(4-chlorobenzyl)-5-fluoropyrimidin-4-yl)oxy)piperidin-1-yl)methyl)-3-((tetrahydrofuran-3-yl)methyl)-3H-imidazo[4,5-b]pyridine-5-carboxylic acid], `O=C(O)c1ccc2nc(CN3CCC(Oc4ccnc(Cc5ccc(Cl)cc5)n4)CC3)n(C[C@H]3CCOC3)c2n1` [Compound 196a, (R)-2-((4-((2-(4-chlorobenzyl)pyrimidin-4-yl)oxy)piperidin-1-yl)methyl)-3-((tetrahydrofuran-3-yl)methyl)-3H-imidazo[4,5-b]pyridine-5-carboxylic acid] is 0.29 log units higher in pEC50: 8.60 for the first, 8.89 for the second. The second is the more potent here.

`N#Cc1ccc(Cc2cccc(OC3CCN(Cc4nc5ccc(C(=O)O)cc5n4C[C@@H]4CCO4)CC3)n2)c(F)c1` [Compound 135a, 2-{[4-({6-[(4-cyano-2-fluorophenyl)methyl]pyridin-2-yl}oxy)piperidin-1-yl]methyl}-1-{[(2S)-oxetan-2-yl]methyl}-1H-1,3-benzodiazole-6-carboxylic acid] and `O=C(O)c1ccc2nc(CN3CCC(Oc4ccn(Cc5ccc(Cl)cc5F)n4)CC3)n(C[C@@H]3CCO3)c2c1` [Compound 116a, 2-{[4-({1-[(4-chloro-2-fluorophenyl)methyl]-1H-pyrazol-3-yl}oxy)piperidin-1-yl]methyl}-1-{[(2S)-oxetan-2-yl]methyl}-1H-1,3-benzodiazole-6-carboxylic acid] are within 0.2 log units of each other in pEC50: 8.74 for the first, 8.55 for the second.

Compared with `O=C(O)c1ccc2nc(CN3CCC(Oc4nc(Cc5ccc(Cl)cc5F)ccc4F)CC3)n(C[C@@H]3CCO3)c2n1` [Compound 111a, 2-{[4-({6-[(4-chloro-2-fluorophenyl)methyl]-3-fluoropyridin-2-yl}oxy)piperidin-1-yl]methyl}-3-{[(2S)-oxetan-2-yl]methyl}-3H-imidazo[4,5-b]pyridine-5-carboxylic acid], `O=C(O)c1ccc2nc(CN3CCC(Oc4nc(Cc5ccc(Cl)cc5F)ncc4F)CC3)n(C[C@@H]3CCO3)c2n1` [Compound 151a, (S)-2-((4-((2-(4-chloro-2-fluorobenzyl)-5-fluoropyrimidin-4-yl)oxy)piperidin-1-yl)methyl)-3-(oxetan-2-ylmethyl)-3H-imidazo[4,5-b]pyridine-5-carboxylic acid] is 0.53 log units higher in pEC50: 9.54 for the first, 10.07 for the second. The second is the more potent here.

Going from `O=C(O)c1ccc2nc(CN3CCC(Cc4cccc(Oc5ccc(Cl)cc5F)n4)CC3)n(C[C@@H]3CCO3)c2n1` [Compound 121a, 2-[(4-{[6-(4-chloro-2-fluorophenoxy)pyridin-2-yl]methyl}piperidin-1-yl)methyl]-3-{[(2S)-oxetan-2-yl]methyl}-3H-imidazo[4,5-b]pyridine-5-carboxylic acid] to `O=C(O)c1ccc2nc(CN3CCC(Oc4cccc(Cc5ccc(Cl)cc5F)n4)C3)n(C[C@@H]3CCO3)c2n1` (stereo partly drawn) [Compound 130a, 2-{[3-({6-[(4-chloro-2-fluorophenyl)methyl]pyridin-2-yl}oxy)pyrrolidin-1-yl]methyl}-3-{[(2S)-oxetan-2-yl]methyl}-3H-imidazo[4,5-b]pyridine-5-carboxylic acid], the pEC50 falls from 8.19 to 7.28 (0.91 log units).

`O=C(O)c1ccc2nc(Cc3ccc(Oc4ccnc(Cc5ccc(Cl)cc5)n4)cc3)n(C[C@@H]3CCO3)c2n1` [Compound 186a, 2-{[4-({2-[(4-chlorophenyl)methyl]pyrimidin-4-yl}oxy)phenyl]methyl}-3-{[(2S)-oxetan-2-yl]methyl}-3H-imidazo[4,5-b]pyridine-5-carboxylic acid] and `O=C(O)c1ccc2nc(CN3CCC(Oc4cccc(Cc5ccc(C6CC6)cc5)n4)CC3)n(C[C@@H]3CCO3)c2n1` [Compound 146a, 2-{[4-({6-[(4-cyclopropylphenyl)methyl]pyridin-2-yl}oxy)piperidin-1-yl]methyl}-3-{[(2S)-oxetan-2-yl]methyl}-3H-imidazo[4,5-b]pyridine-5-carboxylic acid] are within 0.2 log units of each other in pEC50: 9.22 for the first, 9.21 for the second.

Compared with `O=C(O)c1ccc2nc(CN3CCC(Oc4ccc(=O)n(Cc5ccc(Cl)cc5F)n4)CC3)n(C[C@@H]3CCO3)c2n1` [Compound 144a, 2-{[4-({1-[(4-chloro-2-fluorophenyl)methyl]-6-oxo-1,6-dihydropyridazin-3-yl}oxy)piperidin-1-yl]methyl}-3-{[(2S)-oxetan-2-yl]methyl}-3H-imidazo[4,5-b]pyridine-5-carboxylic acid], `O=C(O)c1ccc2nc(CN3CCC(n4ncc5ccc(Cc6ccc(Cl)cc6F)nc54)CC3)n(C[C@@H]3CCO3)c2n1` [Compound 185a, 2-[(4-{6-[(4-chloro-2-fluorophenyl)methyl]-1H-pyrazolo[3,4-b]pyridin-1-yl}piperidin-1-yl)methyl]-3-{[(2S)-oxetan-2-yl]methyl}-3H-imidazo[4,5-b]pyridine-5-carboxylic acid] is 1.01 log units higher in pEC50: 8.32 for the first, 9.33 for the second.

From patent publication US20230071840A1, “HETEROCYCLIC GLP-1 AGONISTS” (Gasherbrum Bio, Inc., priority 2020, published 2023)
